The values that follow come from patent US20120083522A1, “MODULATION OF INFLAMMATORY RESPONSES BY FACTOR XI” (Isis Pharmaceuitcals, inc., priority 2009, published 2012).

In the oligonucleotide strings, read from the 5' end, every base follows the letter of its sugar. An asterisk marks phosphorothioate; unmarked linkages are phosphodiester. Other units and linkages are bracketed, terminal groups are in braces. A string of capitals states the bases alone. e = 2'-O-(2-methoxyethyl) (MOE); [5mC] = 5-methylcytosine; d = 2'-deoxy (DNA)

Data set [1] has as its system IL-1β, IL-6, IFN-γ, TNF-α, IL-8, MIP-1α, MCP-1, MIP-10, RANTES. Description: Cynomolgus monkeys: cytokine and chemokine assays (Example 30). In kind it is in vivo. A digest of the protocol: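 Sampling at day −14 and at necropsy on day 55 gave blood for cytokine and chemokine levels, read with primate antibodies for IL-1β, IL-6, IFN-γ and TNF-α and human cross-reacting antibodies for the rest. Dosing: subcutaneous 25 mg/kg, 3×/week week 1, 2×/week weeks 2–8; PBS control; 2 males + 2 females per group.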

The nature of data set [2]: Arthritis Study B: liver and spleen weight, ALT, AST. In kind it is in vivo. To be noted: collagen-treated DBA/1J mice, 20 mg/kg s.c. twice a week for ten weeks. Here is the method:
(§1) In a group of 20 DBA/1J mice, 20 mg/kg of ISIS 404071 were injected subcutaneously twice a week for ten weeks. In a second group of 20 DBA/1J mice, 20 mg/kg of ISIS 404057 were injected subcutaneously twice a week for ten weeks. In a third control group of 20 DBA/1J mice, 20 mg/kg of ISIS 421208 were injected subcutaneously twice a week for ten weeks. Two control groups of 20 mice each were injected with PBS twice a week for ten weeks.
(§2) Mice in all groups were examined daily after day 30 after the first collagen injection for the visual appearance of arthritis in peripheral joints. The results in Table 22 are expressed as percent change compared to the PBS control except for the liver and spleen weight.

Another data set has as its system murine Factor XI mRNA. Description: Colitis Study B: Factor XI mRNA in the liver. In kind it is in vivo, Swiss Webb mice. The settings on record: DSS-induced colitis, day 7, 20 mg/kg s.c. twice a week for 3 weeks, percent change compared to the PBS control. Here is the method:
In a first group of 8 Swiss Webb mice, 20 mg/kg of ISIS 404071 was injected subcutaneously twice a week for 3 weeks. In a second group of 8 Swiss Webb mice, 20 mg/kg of ISIS 404057 was subcutaneously injected twice a week for 3 weeks. In a third control group of 8 Swiss Webb mice, 20 mg/kg of ISISI 421208 was injected subcutaneously twice a week for 3 weeks. Two control groups of 8 mice each were injected with PBS twice a week for 3 weeks. After the oligonucleotide treatment, 4% DSS in water was administered ad libitum for 6 days to all the experimental groups and one PBS control group.
Mice in all groups were weighed at day 0 and daily after administration of DSS. Mice were sacrificed at the end of the study on day 7 after DSS was administered, their livers and colons were harvested for RNA analysis, and their body weights and colon lengths were measured.
RT-PCR analysis of Factor XI mRNA was performed. As presented in Table 27 and FIG. 10, antisense oligonucleotides targeting Factor XI achieved statistically significant dose-dependent reduction of murine Factor XI over the PBS control in the liver. All the measurements are normalized to cyclophilin.
All the results in Table 27 are expressed as percent change compared to the PBS control.

The test system of data set [3] is DSS-induced colitis model. Nature of the data set: Colitis Study F: body weight, stool scores, colon length and weight. In kind it is in vivo, Swiss Webb mice. The settings on record: DSS-treated mice, 50 mg/kg, Day 8.
Data set [4] deals with collagen-induced arthritis model. Nature of the data set: Arthritis Study B: collagen-induced arthritis, clinical effects (Example 11). Type of data set: in vivo, DBA/1J mice. The method, then:
The effect of inhibition of Factor XI and its role in fibrin accumulation in the joints leading to joint inflammation and rheumatoid arthritis was evaluated in a murine collagen-induced arthritis (CIA) model. […] Arthritis induced in mice administered collagen can be visually assessed and clinically scored as described by Marty et al. (J Clin Invest, 107:631-640, 2001) where 1 point is given for each swollen digit except the thumb (maximum, 4), 1 point is given for the tarsal or carpal joint, and 1 point is given for the metatarsal or metacarpal joint with a maximum score of […]. Each paw was graded individually, the cumulative clinical arthritic score per mouse reaching a maximum of 22 points
as §1
Two and a half weeks after the first oligonucleotide dose, type II bovine collagen in complete Freund's adjuvant was injected subcutaneously at the base of the tail in all the experimental groups and one PBS control group. A booster injection containing 100 μg collagen type II in incomplete Freund's adjuvant was injected subcutaneously at the base of the tail at a different injection site on day 21 after the first collagen injection in these groups.
as §2

Data set [5] deals with thrombin-antithrombin (TAT) complexes. Nature of the data set: Colitis Study E: TAT levels. The settings on record: for TAT levels: colon, DSS-treated mice, day 7, 40 mpk. Type of data set: in vivo, Swiss Webb mice. Here is the method:
Two groups 8 Swiss Webb mice were dosed with 40 mg/kg of ISIS 404071 injected subcutaneously twice a week for 3 weeks. Two control groups of 8 Swiss Webb mice were dosed with PBS subcutaneously twice a week for 3 weeks. Both the ASO treated groups and one of the control groups were then given 4% DSS in distilled water for 7 days ad libitum. One of the ASO and DSS treated groups was also given intravenous injections of 20 μg of recombinant human Factor XI protein (Haematologic Technologies Inc.) for 7 consecutive days, starting the day before DSS treatment. Mice were sacrificed at the end of the study on day 7 after DSS was administered.
Mice with dextran sodium sulfate (DSS)-induced colitis have elevated level of thrombin-antithrombin (TAT) complexes in blood (Anthoni, C. et al., J. Exp. Med. 204: 1595-1601, 2007) and is also observed in patients with ulcerative colitis (Kume, K. et al., Intern Med. 2007. 46: 1323-9). The effect of antisense inhibition of Factor XI on TAT levels in the […] was evaluated (Siemens Healthcare Diagnostics, Deerfield, Ill.) at the end of the study on day 7 after DSS was administered and the results are presented in Table 38.

Where [6] appears, read: day −14 (before start of treatment).
Setting [7] is: DBA/1J mice, 20 mg/kg s.c. twice a week for ten weeks, end of study.

As for “ISIS 416850: gapmer of Table 8 (antisense eT*eG*e[5mC]*eA*e[5mC]*dA*dG*dT*dT*dT*d[5mC]*dT*dG*dG*d[5mC]*eA*eG*eG*e[5mC]*e[5mC])”, in data set [1] (25 mg/kg s.c., day 55), the IL-1β level is on record as 106 pg/mL and the MIP-1β level is 50 pg/mL. In data set [1] (setting [6]), this substance gave an IL-1β level of 215 pg/mL and an MIP-1β level of 31 pg/mL.

For “TGGTAATCCACTTTCAGAGG (eT*eG*eG*eT*eA*dA*dT*d[5mC]*d[5mC]*dA*d[5mC]*dT*dT*dT*d[5mC]*eA*eG*eA*eG*eG) [ISIS 404071, 5-10-5 MOE gapmer targeting murine Factor XI, target start site 869]”, in data set [2], the “Liver ALT” value turned out to be 56.6, the “Liver AST” value was determined as 86.75, the “Liver Weight as a % of Body Weight” value came to 6.089% and the “Spleen Weight as a % of Body Weight” value is on record as 0.759 % of Body Weight. The “Liver Factor XI mRNA” value in the data set with murine Factor XI mRNA is −75%. Also, the Stool score in data set [3] was 2. For the same substance, in data set [4] (Arthritis Study B, 20 mg/kg twice a week for ten weeks, compared to untreated mice), the “amount of arthritis assessed (in words)” value is on record as “significantly decreased the amount of arthritis”. Also, in data set [4] (setting [7]), the “% of CIA” value is listed as 64%, the “% of paws affected” value was 20%, the “Average no. of paws affected” value was 0.82 and the “Clinical severity of CIA” value is 4.6. The “TAT levels (in words)” value in data set [5] (Colitis Study E, day 7) is recorded as “decreased”. In data set [5] (no human recombinant FXI), the TAT levels is reported as 0.1 ng/mg protein. Moreover, the TAT levels in data set [5] (plus human recombinant FXI 20 ug/mouse/day) is given as 0.8 ng/mg protein.
